In patent publication US20050288238A1, “Benzocyclodecane derivatives with antitumor activity” (Pfizer Inc, priority 2004, published 2005):

Molecular target: T1, Pig brain tubulin (Sus scrofa, UniProt P02550+P02554)
T1 construct: Pig brain tubulin was prepared by two cycles of assembly and disassembly; from tissue; host or cells: pig brain
Assay: Microtubule assembly and disassembly assay
Format: biochemical
Conditions: 0.5 mg/ml tubulin, 1 mM GTP, turbidity at 340 nm, reassembly after CaCl2 (5 mM)
Description: Microtubule assembly and disassembly assay.
Pig brain tubulin was prepared by two cycles of assembly and disassembly and it was stored in liquid nitrogen in Microtubule Assembly Buffer (MAB: 0.1 M MES, 2.5 mM EGTA, 0.5 mM MgSO4, 0.1 mM EDTA, 0.1 mM DTT pH 6.4). Assembly was monitored by the method of Gaskin et al. (Gaskin F, Cantor C R, Shelanski M L, 1974,: Turbidimetric studies of the in vitro assembly and disassembly of porcine neurotubules. J. Mol. Biol. 89: 737-758). The cuvette (1 cm path) containing 0.5 mg/ml tubulin and 1 mM GTP was shifted to 37° C. and continuous turbidity measurements were made at 340 nm on a spectrophotometer equipped with an automatic recorder and a thermostatically regulated sample chamber. After 30 min CaCl2 (5 mM) was added and disassembly was monitored for 10 min as decreased turbidity. Scalar doses of test compounds were monitored at regular intervals of 15 min.
(ED90) was calculated on this curve.

T1 sequence (P02550 whole entry): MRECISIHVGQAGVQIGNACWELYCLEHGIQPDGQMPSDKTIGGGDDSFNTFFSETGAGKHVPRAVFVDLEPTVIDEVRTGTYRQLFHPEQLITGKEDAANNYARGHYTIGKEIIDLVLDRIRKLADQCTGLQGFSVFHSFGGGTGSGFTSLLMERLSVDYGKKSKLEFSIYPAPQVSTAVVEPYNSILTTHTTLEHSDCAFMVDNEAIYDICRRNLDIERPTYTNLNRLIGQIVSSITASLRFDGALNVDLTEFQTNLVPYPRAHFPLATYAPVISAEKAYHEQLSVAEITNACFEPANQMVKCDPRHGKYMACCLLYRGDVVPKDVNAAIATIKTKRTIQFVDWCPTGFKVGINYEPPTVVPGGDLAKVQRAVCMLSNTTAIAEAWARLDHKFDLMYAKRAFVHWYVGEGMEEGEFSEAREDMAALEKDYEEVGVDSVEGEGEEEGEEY
T1 sequence (P02554 whole entry): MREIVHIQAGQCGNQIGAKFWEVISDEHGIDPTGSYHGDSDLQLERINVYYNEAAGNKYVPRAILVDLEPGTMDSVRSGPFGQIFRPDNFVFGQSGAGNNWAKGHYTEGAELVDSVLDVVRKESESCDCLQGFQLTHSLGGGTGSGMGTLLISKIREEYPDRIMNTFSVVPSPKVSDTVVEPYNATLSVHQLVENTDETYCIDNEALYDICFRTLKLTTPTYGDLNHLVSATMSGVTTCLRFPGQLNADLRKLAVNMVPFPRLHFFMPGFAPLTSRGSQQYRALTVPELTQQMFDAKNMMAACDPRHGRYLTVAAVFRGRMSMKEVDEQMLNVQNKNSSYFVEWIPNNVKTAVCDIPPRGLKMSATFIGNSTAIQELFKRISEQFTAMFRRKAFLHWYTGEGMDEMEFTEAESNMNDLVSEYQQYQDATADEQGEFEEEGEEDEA

- ED90 (dose effecting tubulin assembly by 90% at 37° C.): 10 µM
SMILES: CC(=O)OC1C/C=C\CC(OC(=O)/C=C/c2cn(C)cn2)Cc2ccccc2C1 (stereo not shown) [I^v a, 11-(Acetyloxy)-5,6,7,10,11,12-hexahydrobenzo[a][10]annulen-6-yl (2E)-3-(1-methyl-1H-imidazol-4-yl)prop-2-enoate]
